In article PMC12490239, “Combining BET inhibition with SMAC mimetics restricts tumor growth and triggers immune surveillance in preclinical cancer models” (Cell Reports Medicine, 2025):

Tests used:
Assay in all cases: cells
Set-up in all cases: CellTiter-Glo 2.0 luminescence proliferation/viability assay, single agents, human tumour cell line panel
[1] = tested on: AGS; settings: Homo sapiens, AGS, 96 h; single agent; read-out: IC50 SMACm
Summary of the method: (§1)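 Human tumour cell lines were seeded into assay plates and held at 37°C with 5% CO2 for twenty-four hours, then exposed in triplicate to rising concentrations of the SMAC mimetic, from 4.5 nM to 10 μM, with DMSO as control. After 96 h, viability was read as CellTiter-Glo2.0 luminescence to derive single-agent IC50 values.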

[2] = tested on: CACO2; settings: Homo sapiens, Caco-2, 96 h; single agent; read-out: IC50 SMACm
Summary of the method: as §1

[3] = tested on: COLO-205; settings: Homo sapiens, COLO 205, 96 h; single agent; read-out: IC50 SMACm
Summary of the method: as §1

[4] = tested on: HARA; settings: 96 h; single agent; read-out: IC50 SMACm
Summary of the method: as §1

[5] = tested on: HCC78; settings: Homo sapiens, HCC78, 96 h; single agent; read-out: IC50 SMACm
Summary of the method: as §1

[6] = tested on: HCC95; settings: Homo sapiens, HCC95, 96 h; single agent; read-out: IC50 SMACm
Summary of the method: as §1

[7] = tested on: HPAF-II; settings: Homo sapiens, HPAF-II, 96 h; single agent; read-out: IC50 SMACm
Summary of the method: as §1

[8] = tested on: LIM2551; settings: 96 h; single agent; read-out: IC50 SMACm
Summary of the method: as §1

[9] = tested on: LS-174T; settings: Homo sapiens, LS174T, 96 h; single agent; read-out: IC50 SMACm
Summary of the method: as §1

[10] = tested on: LS-513; settings: Homo sapiens, LS-513, 96 h; single agent; read-out: IC50 SMACm
Summary of the method: as §1

[11] = tested on: NCI-H2087; settings: Homo sapiens, NCI-H2087, 96 h; single agent; read-out: IC50 SMACm
Summary of the method: as §1

[12] = tested on: NCI-H2228; settings: Homo sapiens, NCI-H2228, 96 h; single agent; read-out: IC50 SMACm
Summary of the method: as §1

[13] = tested on: RERF-LC-Ad2; settings: RERF-LC-Ad2, 96 h; single agent; read-out: IC50 SMACm
Summary of the method: as §1

[14] = tested on: SNU-324; settings: 96 h; single agent; read-out: IC50 SMACm
Summary of the method: as §1

IC50 [1]: 4.06 µM
IC50 [2]: 2.97 µM
IC50 [3]: 4.99 µM
IC50 [5]: 5.11 µM
IC50 [6]: 6.09 µM
IC50 [11]: 5.05 µM
IC50 [12]: 4.44 µM
IC50 [14]: 4.7 µM
SMILES: CN[C@@H](C)C(=O)Nc1ccc(-c2c(-c3cccnc3OC)nc3cc(C)ccn23)c(C#Cc2ccc3c(C)nccc3c2)n1 [SMACm, BI 891065]
IC50 [4]: 3.97 µM
IC50 [7]: 4.64 µM
IC50 [8]: 2.25 µM
IC50 [9]: 2.41 µM
IC50 [10]: 5.77 µM
IC50 [13]: 2.52 µM
